Measurements from ChEMBL document CHEMBL5143750, “Bisubstrate Inhibitors of Severe Acute Respiratory Syndrome Coronavirus-2 Nsp14 Methyltransferase” (ACS Med Chem Lett, 2022).

Tested on: SARS-CoV-2
Assay: Antiviral activity against SARS-CoV-2 infected in human A549 cells overexpressing ACE2 and TMPRSS2 assessed as inhibition of viral growth at 50 uM incubated for 48 hrs by DAPI staining based immunofluorescence assay
Assay type: functional
Settings: Severe acute respiratory syndrome coronavirus 2, A549

Compound | inhibition at 50 µM
Nc1ncnc2c1ncn2[C@@H]1O[C@H](CNCc2ccc3ccccc3c2)[C@@H](O)[C@H]1O | < 15%
Nc1ncnc2c1ncn2[C@@H]1O[C@H](CNS(=O)(=O)c2ccc3cccnc3c2)[C@@H](O)[C@H]1O | < 15%
Nc1ncnc2c1ncn2[C@@H]1O[C@H](CNS(=O)(=O)c2ccc3ccccc3c2)[C@@H](O)[C@H]1O | < 15%
Nc1ncnc2c1ncn2[C@@H]1O[C@H](CNC(=O)c2ccc3ccccc3c2)[C@@H](O)[C@H]1O | < 15%
CC(=O)Nc1ncnc2c1ncn2[C@@H]1O[C@H](CNS(=O)(=O)c2ccc3ccccc3c2)[C@@H](O)[C@H]1O | < 15%
Nc1ncnc2c1ncn2[C@@H]1O[C@H](CNS(=O)(=O)c2ccc3nc(Cl)ccc3c2)[C@@H](O)[C@H]1O | < 15%
Nc1ncnc2c1ncn2[C@@H]1O[C@H](C[C@@H](N)CC[C@H](N)C(=O)O)[C@@H](O)[C@H]1O [SINEFUNGIN] | < 15%

Tested on: SARS-CoV-2
Assay: Antiviral activity against SARS-CoV-2 infected in human A549 cells overexpressing ACE2 and TMPRSS2 assessed as reduction in viral growth incubated for 48 hrs by DAPI staining based immunofluorescence assay
Assay type: functional, organism-based
Settings: Severe acute respiratory syndrome coronavirus 2, A549, 48 h

Compound | EC50
CC(=O)Nc1ncnc2c1ncn2[C@@H]1O[C@H](CNS(=O)(=O)c2ccc3ccccc3c2)[C@@H](OC(C)=O)[C@H]1OC(C)=O | 61 µM
Nc1ncnn2c([C@@H]3O[C@H](CNS(=O)(=O)c4ccc5ccccc5c4)[C@@H](O)[C@H]3O)ccc12 | 0.72 µM
CC(=O)O[C@@H]1[C@H](OC(C)=O)[C@@H](CNS(=O)(=O)c2ccc3ccccc3c2)O[C@H]1c1ccc2c(N)ncnn12 | 4.3 µM
CC(C)C(=O)O[C@@H]1[C@H](OC(=O)C(C)C)[C@@H](CNS(=O)(=O)c2ccc3ccccc3c2)O[C@H]1n1cnc2c(N)ncnc21 | 97 µM
CC(=O)O[C@@H]1[C@H](OC(C)=O)[C@@H](CNS(=O)(=O)c2ccc3ccccc3c2)O[C@H]1n1cnc2c(N)ncnc21 | 53 µM

Tested on: not listed separately
Assay: Therapeutic index, ratio of CC50 for cytotoxicity against human A549 cells overexpressing ACE2 and TMPRSS2 to EC50 for antiviral activity against SARS-CoV-2 infected in human A549 cells overexpressing ACE2 and TMPRSS2 assessed as reduction in viral growth
Assay type: toxicity, cell-based
Settings: read-out: Ratio CC50/EC50

Compound | selectivity ratio
Nc1ncnn2c([C@@H]3O[C@H](CNS(=O)(=O)c4ccc5ccccc5c4)[C@@H](O)[C@H]3O)ccc12 | > 139
